The target in one assay is T1, FGF-R1 (Homo sapiens, UniProt P11362, C488A/C584S/L457V).
T1 construct: starting from the endogenous methionine residue 456 to glutamate 766; made in house; host or cells: baculovirus vector expression system
Kind of assay: Fibroblast Growth Factor (FGF-R) spectrophotometric assay. The conditions noted are these: 1 μM compound; read-out: FGF-P % inhibit @1 μM. The class given is biochemical. The essentials: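 Baculovirus-expressed human FGF-R1 kinase domain (Met456–Glu766; L457V/C488A/C584S), 50 nM, with 2 mM ATP and 15 mM poly(E4Y1) in HEPES pH 7.5. ADP formation coupled via PK/LDH to NADH oxidation, read as A340 decrease. Ki from activity across varying compound concentrations.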

A further assay addresses T2, KDR (Homo sapiens, UniProt P35968).
T2 construct: expressed in transfected cells; host or cells: porcine aorta endothelial (PAE) cells
Kind of assay: KDR (VEGFR2) Phosphorylation in PAE-KDR Cells Assay. The conditions noted are these: PAE cells overexpressing human KDR. The class given is cell-based. Here is the method:
This assay determines the ability of a test compound to inhibit the autophosphorylation of KDR in porcine aorta endothelial (PAE)-KDR cells. PAE cells that overexpress human KDR were used in this assay. The cells were cultured in Ham's F12 media supplemented with 10% fetal bovine serum (FBS) and 400 μg/mL G418. Thirty thousands cells were seeded into each well of a 96-well plate in 75 μL of growth media and allowed to attach for 6 hours at 37° C. Cells were then exposed to the starvation media (Ham's F12 media supplemented with 0.1% FBS) for 16 hours. After the starvation period was over, 10 μL of test agent in 5% DMSO in starvation media were added to the test wells and 10 μL of the vehicle (5% DMSO in starvation media) were added into the control wells. The final DMSO concentration in each well was 0.5%. Plates were incubated at […] for 1 hour and the cells were then stimulated with 500 ng/ml VEGF (commercially available from R & D System) in the presence of 2 mM Na3VO4 for 8 minutes. The cells were washed once with 1 mm Na3VO4 in HBSS and lysed by adding 50 μL per well of lysis buffer. […] Phosphorylation status was assessed by spectrophotometer reading at 450 nm. IC50 values were calculated by curve fitting using a four-parameter analysis.

In assay [1] the target is T3, unphosphorylated VEGF-R2Δ50 (Homo sapiens, UniProt P35968, DEL940-989/E990V).
T3 construct: VEGF-R2Δ50 contains residues 806–939 and 990–1171; made in house; host or cells: baculovirus/insect cell system
T3 sequence (P35968 with tags, fused parts or gaps DEL940-989/E990V limits assumed): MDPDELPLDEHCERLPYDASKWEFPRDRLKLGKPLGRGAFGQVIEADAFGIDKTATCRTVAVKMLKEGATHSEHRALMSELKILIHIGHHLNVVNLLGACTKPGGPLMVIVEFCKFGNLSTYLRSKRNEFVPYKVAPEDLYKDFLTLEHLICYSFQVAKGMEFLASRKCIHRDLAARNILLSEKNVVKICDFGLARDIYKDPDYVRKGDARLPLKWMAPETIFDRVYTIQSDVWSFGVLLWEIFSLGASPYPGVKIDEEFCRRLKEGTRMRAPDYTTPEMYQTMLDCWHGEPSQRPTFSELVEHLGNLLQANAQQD
Kind of assay: VEGF-R2 coupled spectrophotometric assay, unphosphorylated construct (FLVK). The class given is biochemical. The settings on record: % inhibition at 50 nM compound; read-out: FLVK Ki % inh @ 50 nM. The essentials: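 Human VEGF-R2Δ50 kinase (residues 806–939/990–1171, baculovirus-expressed; autophosphorylated form pre-treated with 3 mM ATP, 4° C, 2 h), 5–40 nM, with poly(E4Y1) in 200 mM HEPES pH 7.5; ADP coupled via PK/LDH to NADH oxidation at 340 nm. Phosphorylated: 1 mM ATP, 5.1 mM poly(E4Y1), 25 mM MgCl2; unphosphorylated: 3 mM ATP, 20 mM poly(E4Y1), 60 mM MgCl2, 2 mM MnCl2. Ki from activity at varying compound levels.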

Assay [2] deals with T4, phosphorylated VEGF-R2Δ50 (Homo sapiens, UniProt P35968, DEL940-989/E990V).
T4 construct: VEGF-R2Δ50 contains residues 806–939 and 990–1171; made in house; host or cells: baculovirus/insect cell system
T4 sequence (P35968 with tags, fused parts or gaps DEL940-989/E990V limits assumed): as above
Kind of assay: VEGF-R2 coupled spectrophotometric (FLVK-P) assay, phosphorylated construct. Type of assay: biochemical. The settings on record: Ki (nM). The text has this: This construct determines the ability of a test compound to inhibit tyrosine kinase activity. A construct (VEGF-R2Δ50) of the cytosolic domain of human vascular endothelial growth factor receptor 2 (VEGF-R2) lacking the 50 central residues of the 68 residues of the kinase insert domain was expressed in a baculovirus/insect cell system. Of the 1356 residues of full-length VEGF-R2, VEGF-R2Δ50 contains residues 806–939 and 990–1171, and also one point mutation (E99OV) within the kinase insert domain relative to wild-type VEGF-R2. Autophosphorylation of the purified construct was performed by incubation of the enzyme at a concentration of 4 μM in the presence of 3 mM ATP and 40 mM MgCl2 in 100 mM HEPES, pH 7.5, containing 5% glycerol and 5 mM DTT, at 4° C. for 2 h. […] See Parast et al., Biochemistry, 37,16788–16801 (1998).
The production of ADP from ATP that accompanies phosphoryl transfer was coupled to oxidation of NADH using phosphoenolpyruvate (PEP) and a system having pyruvate kinase (PK) and lactic dehydrogenase (LDH). The oxidation of NADH was monitored by following the decrease of absorbance at 340 nm (e340=6.22 cm^−1 mM^−1) using a Beckman DU 650 spectrophotometer. […] Ki values were determined by measuring enzyme activity in the presence of varying concentrations of test compounds. The data were analyzed using Enzyme Kinetic and Kaleidagraph software.

Assay [3] has as its system human umbilical vein endothelial cells (HUVEC). Kind of assay: HUVEC Proliferation Assay (VEGF-stimulated). The class given is cell-based. The procedure, abridged: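 Serum-starved HUVEC (passage 3–4, F12K + 1% FBS, 24 h) pretreated 1 h with compound (final DMSO 0.1%), then stimulated with 6 ng/mL VEGF for 72 h. Proliferation read by 4 h MTT reduction, absorbance 595. IC50 from seven-point 0.5-log curves in triplicate; screening % inhibition normalised to VEGF-only and starvation controls.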

In the next assay the test system is HUVEC. The assay is described as follows: bFGF Huvec. Type of assay: cell-based. The conditions noted are these: Homo sapiens.

Each structure is given as a SMILES string.

The term IC50 denotes the point on the concentration scale where inhibition reaches its midpoint. High values mean a need for much substance, low ones inhibition by little substance. In general, Ki refers to the dissociation constant of the complex between target and ligand, obtained from inhibition or displacement.

T2 sequence (P35968 20-1356): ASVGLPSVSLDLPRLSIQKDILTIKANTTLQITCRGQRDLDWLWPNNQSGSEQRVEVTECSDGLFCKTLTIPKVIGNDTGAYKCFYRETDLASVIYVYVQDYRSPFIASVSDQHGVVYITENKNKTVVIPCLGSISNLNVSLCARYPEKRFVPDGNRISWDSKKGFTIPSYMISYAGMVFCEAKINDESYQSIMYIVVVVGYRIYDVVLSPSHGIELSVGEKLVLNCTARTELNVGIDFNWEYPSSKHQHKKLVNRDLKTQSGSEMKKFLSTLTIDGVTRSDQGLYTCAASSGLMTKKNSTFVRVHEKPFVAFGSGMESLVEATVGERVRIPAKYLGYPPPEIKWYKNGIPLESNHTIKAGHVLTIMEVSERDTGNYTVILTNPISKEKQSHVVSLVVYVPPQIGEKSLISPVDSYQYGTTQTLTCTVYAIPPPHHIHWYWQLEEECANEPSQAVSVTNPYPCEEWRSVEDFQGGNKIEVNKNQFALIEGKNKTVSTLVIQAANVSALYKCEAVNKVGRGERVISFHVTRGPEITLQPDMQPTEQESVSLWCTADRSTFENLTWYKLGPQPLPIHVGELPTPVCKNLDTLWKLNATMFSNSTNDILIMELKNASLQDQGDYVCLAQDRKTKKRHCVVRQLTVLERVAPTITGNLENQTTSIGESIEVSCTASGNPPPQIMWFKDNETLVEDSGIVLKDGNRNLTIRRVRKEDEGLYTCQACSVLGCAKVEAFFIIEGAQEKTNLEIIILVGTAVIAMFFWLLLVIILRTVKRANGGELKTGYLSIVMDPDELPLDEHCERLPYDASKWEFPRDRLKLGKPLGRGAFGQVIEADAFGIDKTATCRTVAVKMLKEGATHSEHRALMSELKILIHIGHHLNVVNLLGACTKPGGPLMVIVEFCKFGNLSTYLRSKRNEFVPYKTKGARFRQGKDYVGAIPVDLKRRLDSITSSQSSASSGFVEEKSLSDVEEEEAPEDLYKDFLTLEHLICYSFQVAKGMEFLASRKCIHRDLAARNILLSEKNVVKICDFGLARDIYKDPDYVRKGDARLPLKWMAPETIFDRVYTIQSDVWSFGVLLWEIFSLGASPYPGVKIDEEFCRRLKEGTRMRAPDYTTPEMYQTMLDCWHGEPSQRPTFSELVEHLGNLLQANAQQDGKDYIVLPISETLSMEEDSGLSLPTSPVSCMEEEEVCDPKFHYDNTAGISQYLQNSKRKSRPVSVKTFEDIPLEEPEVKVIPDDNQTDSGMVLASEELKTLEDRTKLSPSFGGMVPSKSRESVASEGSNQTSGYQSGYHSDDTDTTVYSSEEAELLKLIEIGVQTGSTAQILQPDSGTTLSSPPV
T1 sequence (P11362 456-766 L457V/C488A/C584S): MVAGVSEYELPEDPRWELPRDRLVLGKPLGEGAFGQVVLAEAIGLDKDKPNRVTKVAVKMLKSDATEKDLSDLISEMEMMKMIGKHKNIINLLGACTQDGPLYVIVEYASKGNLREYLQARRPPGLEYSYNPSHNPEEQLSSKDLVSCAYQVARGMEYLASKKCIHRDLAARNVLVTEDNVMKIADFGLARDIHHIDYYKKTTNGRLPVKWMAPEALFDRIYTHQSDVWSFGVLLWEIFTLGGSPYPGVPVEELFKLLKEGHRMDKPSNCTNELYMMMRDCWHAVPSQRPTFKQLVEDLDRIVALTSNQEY

On to `Cc1ccnc(/C=C/c2n[nH]c3cc(Nc4ccccc4C(=O)NCc4ccccn4)ccc23)c1` [Example 37, 2-{3-[2-(4-Methyl-pyridin-2-yl)-vinyl]-1H-indazol6-ylamino}-N-pyridin-2-ylmethyl-benzamide], for which the inhibition at 1 µM on FGF-R1 was 45%. Besides, half-maximal inhibition on KDR (IC50) required 0.76 nM. Further, the inhibition at 0.05 µM in assay [1] came to 90%.

`Cc1ccnc(/C=C/c2n[nH]c3cc(Nc4ccccc4C(=O)NCC#CC4CC4)ccc23)c1` [Example 36, N-(3Cycloprop-2-ynyl)-2-{3-[(E)-2-(4-methyl-pyridin-2-yl)-vinyl]-1H-indazol-6-ylamino}-benzamide]: the inhibition at 1 µM at FGF-R1 is 69%. In assay [2], this compound registered a Ki of 0.3 nM. Besides, the IC50 in assay [3] was found to be 1.67 nM; on KDR it was 1.62 nM; in the assay with HUVEC, 935 nM. Further, the inhibition at 0.05 µM in assay [1] was found to be 95%.

Values taken from patent publication US7053107B2, “Indazole compounds and pharmaceutical compositions for inhibiting protein kinases, and methods for their use” (Agouron Pharmaceuticals, Inc., priority 2002, dated 2006).
